Measurements as given in PubChem BioAssay AID296 (DTP/NCI, 2004).
Several values for one entry are separate records, joined by “and”; a condition that tells them apart may be missing. Equal values may be shown once. Records with an inconclusive call do not appear.

Test system: MX-1 breast xenograft, nude mice, tumor weight T/C
Test: NCI In Vivo Anticancer Drug Screen. Data for tumor model Human Mammary Carcinoma MX-1 Xenograft (intrarenal inoculation) in NU/NU Swiss (nude) mice
Conditions: endpoint: mean tumor weight change, higher = larger tumour
Summary of the method: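 Read-out: treated (T) over vehicle control (C) ratio of survival or tumor size. Dosing in animals carrying the transplanted tumor.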

[1] = dose: 100.0 mg/kg/injection, schedule: Q04DX003 (sc), vehicle: saline with Tween-80
[2] = dose: 200.0 mg/kg/injection, schedule: Q04DX003 (sc), vehicle: saline with Tween-80
[3] = dose: 18.75 mg/kg/injection, schedule: Q04DX003 (sc), vehicle: saline with Tween-80
[4] = dose: 25.0 mg/kg/injection, schedule: Q04DX003 (sc), vehicle: saline with Tween-80
[5] = dose: 37.5 mg/kg/injection, schedule: Q04DX003 (sc), vehicle: saline with Tween-80
[6] = dose: 50.0 mg/kg/injection, schedule: Q04DX003 (sc), vehicle: saline with Tween-80
[7] = dose: 75.0 mg/kg/injection, schedule: Q04DX003 (sc), vehicle: saline with Tween-80
[8] = dose: 150.0 mg/kg/injection, schedule: Q04DX003 (sc), vehicle: saline with Tween-80
[9] = dose: 600.0 mg/kg/injection, schedule: Q04DX003 (sc), vehicle: saline with Tween-80
[10] = dose: 100.0 mg/kg/injection, schedule: Q01DX010 (sc), vehicle: Klucel (hydroxypropylcellulose) (HPC)

## N=C(N)SCc1c2ccccc2c(CSC(=N)N)c2ccccc12
dose: 300.0 mg/kg/injection, schedule: Q04DX003 (sc), vehicle: suspension in saline
  T/C: 93 % of control
dose: 600.0 mg/kg/injection, schedule: Q04DX003 (sc), vehicle: suspension in saline
  T/C: 152 % of control
dose: 1200.0 mg/kg/injection, schedule: Q04DX003 (sc), vehicle: suspension in saline
  T/C: 112 % of control
dose: 2400.0 mg/kg/injection, schedule: Q04DX003 (sc), vehicle: suspension in saline
  T/C: 89 % of control

## O=C(O[Si](Cc1ccccc1)(Cc1ccccc1)Cc1ccccc1)N(CCCl)CCCl
[1]
  T/C: 78 % of control
[2]
  T/C: 29 % of control

## CC(C)CCCCCCCCCCCCC(=O)NCC(=O)NC1C(C)OC(Nc2ncnc3nc[nH]c23)C(O)C1O (stereo not drawn)
dose: 1.0 mg/kg/injection, schedule: Q01DX010 (sc), vehicle: distilled water + Tween-80
  T/C: 68 % of control
dose: 2.0 mg/kg/injection, schedule: Q01DX010 (sc), vehicle: distilled water + Tween-80
  T/C: 75 % of control
dose: 4.0 mg/kg/injection, schedule: Q01DX010 (sc), vehicle: distilled water + Tween-80
  T/C: 55 % of control
dose: 8.0 mg/kg/injection, schedule: Q01DX010 (sc), vehicle: distilled water + Tween-80
  T/C: 25 % of control

## O=NNc1ccc(Cl)cn1
dose: 18.7 mg/kg/injection, schedule: Q04DX003 (ip), vehicle: water
  T/C: 24 % of control
dose: 37.5 mg/kg/injection, schedule: Q04DX003 (ip), vehicle: water
  T/C: -51 % of control

## COc1cccc2c1C(=O)c1c(O)c3c(c(O)c1C2=O)C[C@@](O)(/C(CO)=N/NC(=O)c1ccc(Cl)c(Cl)c1)C[C@@H]3OC1CC(N)C(O)C(C)O1 (stereo partly drawn)
dose: 8.0 mg/kg/injection, schedule: Q01DX010 (sc), vehicle: water
  T/C: 42 % of control

## Cc1cc(NC(=S)SCc2ccc3c(c2)OCO3)ccc1Cl
dose: 150.0 mg/kg/injection, schedule: Q04DX003 (sc), vehicle: Klucel (hydroxypropylcellulose) (HPC)
  T/C: 106 % of control
dose: 300.0 mg/kg/injection, schedule: Q04DX003 (sc), vehicle: Klucel (hydroxypropylcellulose) (HPC)
  T/C: 104 % of control
dose: 600.0 mg/kg/injection, schedule: Q04DX003 (sc), vehicle: Klucel (hydroxypropylcellulose) (HPC)
  T/C: 118 % of control
dose: 1200.0 mg/kg/injection, schedule: Q04DX003 (sc), vehicle: Klucel (hydroxypropylcellulose) (HPC)
  T/C: 88 % of control

## Cc1ccc2c(c1)N=C(Nc1ccccc1)N=S2(C)=O (stereo not drawn)
[1]
  T/C: 79 % of control
[2]
  T/C: 78 % of control
dose: 400.0 mg/kg/injection, schedule: Q04DX003 (sc), vehicle: saline with Tween-80
  T/C: 75 % of control
dose: 800.0 mg/kg/injection, schedule: Q04DX003 (sc), vehicle: saline with Tween-80
  T/C: 60 % of control

## CN1C(=O)CC2(CCN(CCCC(=O)c3ccc(F)cc3)CC2)C1=O
dose: 37.5 mg/kg/injection, schedule: Q04DX003 (sc), vehicle: suspension in saline
  T/C: 61 % of control
dose: 150.0 mg/kg/injection, schedule: Q04DX003 (sc), vehicle: suspension in saline
  T/C: 85 % of control

## CC1c2ccccc2CC(CCN(C)C)c2ccccc21 (stereo not drawn)
dose: 9.37 mg/kg/injection, schedule: Q04DX003 (sc), vehicle: saline with Tween-80
  T/C: 101 % of control
dose: 12.5 mg/kg/injection, schedule: Q04DX003 (sc), vehicle: saline with Tween-80
  T/C: 63 % of control
[3]
  T/C: 83 % of control
[4]
  T/C: 54 % of control
[5]
  T/C: 52 % of control
[6]
  T/C: 65 % of control
[7]
  T/C: 26 % of control
[1]
  T/C: 38 % of control
[8]
  T/C: -3 % of control
[9]
  T/C: -19 % of control

## CC1CN=C(c2ccc(NC(=O)c3ccc(C(=O)Nc4ccc(C5=NCC(C)N5)cc4)cc3)cc2)N1 (stereo not drawn)
[10]
  T/C: 96 % of control
dose: 200.0 mg/kg/injection, schedule: Q01DX010 (sc), vehicle: Klucel (hydroxypropylcellulose) (HPC)
  T/C: 107 % of control
dose: 400.0 mg/kg/injection, schedule: Q01DX010 (sc), vehicle: Klucel (hydroxypropylcellulose) (HPC)
  T/C: 110 % of control
dose: 800.0 mg/kg/injection, schedule: Q01DX010 (sc), vehicle: Klucel (hydroxypropylcellulose) (HPC)
  T/C: 77 % of control

## COc1c(CNC(=O)CCl)cc2[nH]c(C)cc2c1CNC(=O)CCl
dose: 250.0 mg/kg/injection, schedule: Q04DX003 (sc), vehicle: Klucel (hydroxypropylcellulose) (HPC)
  T/C: 100 % of control
dose: 1000.0 mg/kg/injection, schedule: Q04DX003 (sc), vehicle: Klucel (hydroxypropylcellulose) (HPC)
  T/C: 55 % of control
dose: 2000.0 mg/kg/injection, schedule: Q04DX003 (sc), vehicle: Klucel (hydroxypropylcellulose) (HPC)
  T/C: 58 % of control

## C1OC1CO[C@@H]1CO[C@H]2[C@@H]1OC[C@H]2OCC1CO1 (stereo partly drawn)
dose: 50.0 mg/kg/injection, schedule: Q01DX010 (sc), vehicle: saline with Tween-80
  T/C: 45 % of control
dose: 100.0 mg/kg/injection, schedule: Q01DX010 (sc), vehicle: saline with Tween-80
  T/C: 112 % of control
dose: 200.0 mg/kg/injection, schedule: Q01DX010 (sc), vehicle: saline with Tween-80
  T/C: 24 % of control

## NC(=O)c1cc(Cl)nc2nc(Cl)nc(N)c12
dose: 150.0 mg/kg/injection, schedule: Q04DX003 (ip), vehicle: saline with Tween-80
  T/C: 112 % of control
dose: 300.0 mg/kg/injection, schedule: Q04DX003 (ip), vehicle: saline with Tween-80
  T/C: 108 % of control
dose: 600.0 mg/kg/injection, schedule: Q04DX003 (ip), vehicle: saline with Tween-80
  T/C: 90 % of control
dose: 1200.0 mg/kg/injection, schedule: Q04DX003 (ip), vehicle: saline with Tween-80
  T/C: 93 % of control

## OCC1OC(n2cnc3cncnc32)C(O)C1O (stereo not drawn)
dose: 12.5 mg/kg/injection, schedule: Q04DX003 (sc), vehicle: saline
  T/C: 90 % of control
dose: 25.0 mg/kg/injection, schedule: Q04DX003 (sc), vehicle: saline
  T/C: 106 % of control
dose: 50.0 mg/kg/injection, schedule: Q04DX003 (sc), vehicle: saline
  T/C: 78 % of control

## CN(C)c1nc(N(C)C)nc(N(C)C)n1
dose: 25.0 mg/kg/injection, schedule: Q01DX010 (sc), vehicle: Klucel (hydroxypropylcellulose) (HPC)
  T/C: 5 % of control
dose: 50.0 mg/kg/injection, schedule: Q01DX010 (sc), vehicle: Klucel (hydroxypropylcellulose) (HPC)
  T/C: 21 % of control
[10]
  T/C: -82 % of control
[9]
  T/C: -87 % of control and -100 % of control

## COc1cccc2c1C(=O)c1c(O)c3c(c(O)c1C2=O)C[C@@](O)(C(=O)CO)C[C@@H]3OC1CC(N(C)C)C(O)C(C)O1 (stereo partly drawn)
dose: 3.0 mg/kg/injection, schedule: Q01DX010 (sc), vehicle: water
  T/C: 211 % of control
dose: 6.0 mg/kg/injection, schedule: Q01DX010 (sc), vehicle: water
  T/C: 227 % of control

## Nc1nc(N)c2c(Cl)c(CNc3ccc(Cl)c(Cl)c3)ccc2n1
[3]
  T/C: 80 % of control
[5]
  T/C: 87 % of control
[7]
  T/C: 93 % of control
[8]
  T/C: 111 % of control

## CCCCCCCCCCCCCCCC(=O)Nc1ccn(C2OC(CO)C(O)C2O)c(=O)n1 (stereo not drawn)
dose: 1200.0 mg/kg/injection, schedule: Q04DX003 (sc), vehicle: water
  T/C: -65 % of control and -50 % of control

## CCCCNC(C)C1(O)Cc2c(O)c3c(c(O)c2C(OC2CC(N)C(O)C(C)O2)C1)C(=O)c1c(OC)cccc1C3=O (stereo not drawn)
dose: 100.0 mg/kg/injection, schedule: Q01DX010 (sc), vehicle: water
  T/C: 115 % of control
dose: 200.0 mg/kg/injection, schedule: Q01DX010 (sc), vehicle: water
  T/C: 75 % of control

## Nc1cc2c3c(cccc3c1)C(=O)N(CCN1CCCC1)C2=O
[4]
  T/C: 60 % of control
[6]
  T/C: 60 % of control
[1]
  T/C: 120 % of control
[2]
  T/C: 119 % of control

## CCCCCc1cc(O)c2c(c1)OC(C)(C)[C@@H]1CCC(C)=C[C@@H]21
dose: 150.0 mg/kg/injection, schedule: Q04DX003 (sc), vehicle: other
  T/C: 82 % of control
dose: 300.0 mg/kg/injection, schedule: Q04DX003 (sc), vehicle: other
  T/C: 81 % of control
dose: 1200.0 mg/kg/injection, schedule: Q04DX003 (sc), vehicle: other
  T/C: 83 % of control

## CNC(=O)n1c(N)nc(-c2ccccc2)c1-c1ccccc1
[8]
  T/C: 105 % of control
dose: 300.0 mg/kg/injection, schedule: Q04DX003 (sc), vehicle: saline with Tween-80
  T/C: 62 % of control
[9]
  T/C: 62 % of control
dose: 1200.0 mg/kg/injection, schedule: Q04DX003 (sc), vehicle: saline with Tween-80
  T/C: 68 % of control

## CC1=CC(C)(C)Nc2ccc(CSc3ccccc3)cc21
dose: 25.0 mg/kg/injection, schedule: Q01DX010 (sc), vehicle: saline + Tween-80 + alcohol
  T/C: 85 % of control
dose: 50.0 mg/kg/injection, schedule: Q01DX010 (sc), vehicle: saline + Tween-80 + alcohol
  T/C: 153 % of control
dose: 100.0 mg/kg/injection, schedule: Q01DX010 (sc), vehicle: saline + Tween-80 + alcohol
  T/C: 79 % of control and 102 % of control
dose: 200.0 mg/kg/injection, schedule: Q01DX010 (sc), vehicle: saline + Tween-80 + alcohol
  T/C: 89 % of control
